In publication PMC5517430, “2,3,7,8-Tetrachlorodibenzo-p-dioxin (TCDD)-elicited effects on bile acid homeostasis: Alterations in biosynthesis, enterohepatic circulation, and microbial metabolism” (Scientific Reports, 2017):

Key:
Cyp39a1 = assay: Hepatic RNA-Seq differential gene expression (fold change, P1(t), ED50, BMD, BMDL); format: in vivo, mouse; details: C57BL/6, mouse, liver, oral; male mice, TCDD every 4 d for 28 d
Experimental: (§1) Frozen ileal epithelium scrapings and liver samples were homogenized in TRIzol (Ambion, Waltham, MA) using a Mixer Mill 300 tissue homogenizer (Retsch, Germany) and total RNA was isolated as previously described. RNA was quantified using a Nano-drop spectrophotometer (Thermo Scientific, Wilmington, DE) at 260 nm, and purity was assessed using the A260/A280 ratio and the Caliper LabChip GX (Perkin Elmer, Waltham, MA).
(§2) Dose-dependent gene expression was examined using RNA-Seq performed at the MSU Research Technology Support Facility (RTSF) Genomics Core (rtsf.natsci.msu.edu/genomics). Ileal libraries from three independent biological replicates (n = 3) were prepared using the Ovation Mouse RNA-Seq System 1–16 sample preparation kit (NuGen, San Carlos, CA), with an additional DNase step. Libraries were quantified and sequenced as previously described, using a read depth of ~30 M per sample[33], [67]. Quality was determined using FASTQC v0.11.3 and adaptor sequences were removed using Trimmomatic v0.33. Reads were mapped to the mouse reference genome (GRCm38 release 81) using Bowtie2 v2.2.6 and TopHat2 v2.1.0. Alignments were converted to SAM format using SAMTools v1.2.0. For TCDD-mediated differential gene expression, fold changes were calculated relative to vehicle controls. Hepatic RNA-Seq analysis was previously published. Genes were considered differentially expressed if |fold change| ≥ 1.5 and statistical P1(t) value ≥ 0.8 at one or more doses. RNA-Seq datasets for the ileal epithelium and liver were deposited in the Gene Expression Omnibus (GEO; accession number GSE89430 and GSE87519, respectively). The RNA-Seq results (fold changes, P1(t) values) for each gene discussed in the manuscript have been compiled in Supplementary Table S1. […] Estimation of benchmark dose (BMD) and BMD lower confidence limit (BMDL) was performed using BMDExpress[69] as previously described, and has been included in Supplementary Table S1.

Slc6a6 = assay: as above; format: in vivo, mouse; details: C57BL/6, mouse, liver, oral; male mice, TCDD every 4 d for 28 d
Experimental: as §1, §2

Gpbar1 = assay: Hepatic qRT-PCR; format: in vivo; details: Mus musculus; male mice, 30 µg/kg TCDD every 4 d for 28 d; read-out: Gpbar1 hepatic expression (qRT-PCR), fold induction
Experimental: Given the low (≤10) read counts for Gpbar1 in the RNA-Seq dataset, differential expression was confirmed by qRT-PCR[13]. Total hepatic RNA was reverse transcribed by SuperScript II (Invitrogen) using oligo dT primer according to the manufacturer’s protocol. PCR amplification was conducted on a Bio-Rad CFX Connect Real-Time PCR Detection System. Gene expression relative to vehicle control was calculated using the 2^−∆∆CT method, where each sample was normalized to the geometric mean of 3 housekeeping genes (Actb, Gapdh, and Hprt). Gene expression data are plotted relative to vehicle control. Forward and reverse primer sequences are provided in Supplementary Table S2.

hepatic cholesterol = tested on: hepatic cholesterol; set-up: method as in PMID 28238261; details: male C57BL/6 mice, 30 µg/kg TCDD every 4 d for 28 d, cited from earlier work

Clc1cc2c(cc1Cl)Oc1cc(Cl)c(Cl)cc1O2 [TCDD, 2,3,7,8-tetrachlorodibenzo-p-dioxin]
fold induction at 28 d (Cyp39a1): 2.1 | fold induction at 28 d (Slc6a6): 1.8 | fold induction at 0.03 mg/kg (Gpbar1): 4.3 | Hepatic cholesterol ester level, fold increase (hepatic cholesterol): 11.3 fold | Hepatic cholesterol level, fold increase (hepatic cholesterol; not confirmed by high resolution MS/MS): 9.0 fold
